Reference: patent US9566251B2, “Volatile anesthetic compositions and methods of use” (Board of Regents, The University of Texas System, priority 2008, dated 2017)
“And” between values parts separate entries of the source, which are not always exact repeats. Equal values may be shown once.

Columns and labels:
[1] = system: rats; experiment: Plantar Heat Stimulation Test after subcutaneous injection into the hindpaw; type: in vivo; conditions: rat, 100 μl subcutaneously into one hindpaw; for antinociceptive effect (paw withdrawal latency, treated vs untreated paw): cutoff 22 seconds
Method: Rats are assessed for response to thermal stimulation using the Plantar Heat Stimulation Test (i.e., radiant heat) (Planar Analgesia Instrument, Ugo Basile, Italy) by measuring paw withdrawal latency. 100 μl of pureform Isoflurane or 100 μl of 2% Lidocaine was injected subcutaneously into the planar surface of one hindpaw of each rat. For each rat, the untreated, contralateral hindpaw served as its own control.
After the rats acclimated for 15 minutes under acrylic boxes that allow minimal movement, a heat source was positioned beneath the mid-plantar surface of the hind paw. Withdrawal latency was defined as the period of time from the beginning of the thermal stimulation to the brisk withdrawal of the hind paw. To avoid tissue damage, a cutoff time of 22 seconds was set. Thermal stimulation was applied three times to each hind paw at an interstimulus interval of 3-5 minutes. Thermal withdrawal latency was assessed before and after the treatment. An increase in the withdrawal latency in the treated paw compared to the control paw was assessed as analgesic activity of the tested formulation.
For statistical comparison, student paired t-test analysis was used. Differences were considered significant at P<0.05 (# P<0.05 isoflurane versus control n=4; * P<0.05 lidocaine versus control n=3).

[2] = system: Sprague-Dawley rats; experiment: Hotplate test (thermal withdrawal latency) after intrathecal injection of volatile anesthetic; type: in vivo; conditions: rat; for Thermal withdrawal latency, Average / Thermal withdrawal latency, Group Average: 2 microliters intrathecal; for Thermal withdrawal latency, Average: average per rat; for Thermal withdrawal latency, Group Average: group of four rats, saline control 8.33 seconds; for thermal latency time (analgesic effect): intrathecally delivered dose of 2 microliters
Method: This study was designed to evaluate efficacy of direct intrathecal injection of volatile anesthetic in reducing pain and providing analgesia. The study was conducted over a one (1) month period using the volatile anesthetics isoflurane and sevoflurane injected directly intrathecally or dissolved in saline as shown in the studies below. The subject animal used was the rat, since the rat has a well-established model of pain/analgesia testing. In particular, Sprague-Dawley rats weighing over 350 gm were used. The rats were anesthetized with pentobarbital (50 mg/kg), and the anesthetic depth of the animals was determined by corneal reflex and paw withdrawal reflex to a noxious stimulus.
[…]. A midline surgical dissection of the posterior neck muscles was performed to obtain access to the occipito-atlantoid membrane. This membrane was identified and then dissected. A sterile polyethylene catheter was introduced in the subarachnoid space until the lumbar enlargement of the spinal cord (approximately 7-8 cm measured in each animal). The surgical wound was closed, first suturing the neck muscles with 3-0 silk sutures and then closing the skin incision with staples.
After the surgery, the rats were moved to their cages and a radiant lamp was placed over the cages so that the rats would not undergo anesthetic-induced hypothermia. The rats were continuously monitored from the end of the surgery until they were fully awake. Rats showing any motor impairment after surgery were euthanized.
On the fifth day after surgery, those rats without wound infection or motor dysfunction were transported to the pain behavioral lab to enter the intrathecal study with volatile anesthetics. Twelve rats were selected for the study. All these rats had intrathecal catheters. Isoflurane (1-chloro-2,2,2-trifluoroethyl difluoromethyl ether) and sevoflurane (fluoromethyl 2,2,2-trifluoro-1-(trifluoromethyl)ethyl ether) were used as the halogenated ether compounds. Both of these are halogenated volatile anesthetics, with isoflurane manufactured by Baxter and sevoflurane manufactured by Abbott Laboratories. The 12 rats were divided into 3 groups of four rats each for study A and B.
In the second group, 2 microliters of isoflurane was injected via the intrathecal catheter into each rat. This catheter was also flushed with preservative-free normal saline. This group was then subjected to pain behavioral testing.
In the third group, 2 microliters of sevoflurane was injected via the intrathecal catheter into each rat. This catheter was also flushed with preservative-free normal saline. This group was then subjected to pain behavioral testing.
A “hotplate” behavioral test was used to evaluate pain perception and analgesia. The pain behavioral testing model used in these studies have been well established by Tony Yaksh. (See, for example Chaplan et al., 1994, J. Neurosci. Methods, 53:55-63; Yaksh et al., 2001, J. Appl. Physiol., 90:2386-2402; Kim and Chung, 1992, Pain, 50:355-363.; Sorkin et al., 2001, Anesthesiology, 95:965-973). This test involves determining how quickly a rat will withdraw its hind paw in response to a noxious stimulus such as a radiant heat source placed directly underneath its paw. This time for withdrawal is known as “thermal withdrawal latency”.
Rats were transferred for testing onto a modified Hargreaves apparatus with a heated glass plate maintained at 25° C. (see Hargreaves et al., 1998, Pain, 32:77-88). A focused projection bulb below the plate was aimed at the mid-plantar surface of the paw. A photodiode-activated timer measured the withdrawal latency, and a cutoff time of 25 seconds was used to prevent tissue damage. Thermal withdrawal latency to radiant heat was measured at 5 minutes and 30 minutes after each intrathecal injection. Each paw was tested three times, and the results were averaged. The below data was collected for both the right and left hind paws: […]

[3] = Isoflurane stability: weighing remaining isoflurane in uncapped vials over time; type: physicochemical; conditions: uncapped vial in fume hood
Method: In the Examples that follow, the stability of isoflurane in the described compositions was determined in two ways. First, the compositions were examined for the presence of phase separation at the macroscopic level. Secondly, isoflurane content of the compositions was determined by weighing the remaining isoflurane in the composition when they were left uncapped over time. […] The other vials received varying amounts of isoflurane. They were left uncapped in the hood. Over time, the vials were weighed to see if the isoflurane stayed in the composition or had evaporated. The amount evaporated over time in the vehicle control was subtracted from that in the isoflurane-containing composition. The pure form of isoflurane is a volatile anesthetic. In order to assess the volatility of isoflurane, two vials received the indicated amounts of pure form isoflurane. The vials were placed in the chemical fume hood and left uncapped. The vials were weighed at the indicated times to determine the amount of evaporated isoflurane. As it is shown in the table below 0.7893 g isoflurane was evaporated within 3 hours, while 3.4825 g isoflurane took approximately 8 hrs to evaporate completely. These amounts of isoflurane are similar to the amounts of isoflurane that were used to prepare the isoflurane compositions in the Examples that follow.

time until isoflurane was evaporated ([3]; 0.7893 g pure form) [h]	time to evaporate completely ([3]; 3.4825 g pure form)	SMILES	antinociceptive effect (paw withdrawal latency, treated vs untreated paw) [1]	antinociceptive effect began at ([1]; time after administration) [min]	antinociceptive effect peaked at ([1]; time after administration) [min]	antinociceptive effect returned to baseline levels at ([1]; time after administration) [min]	Thermal withdrawal latency, Average ([2]; 5 minutes after injection)	Thermal withdrawal latency, Group Average ([2]; 5 minutes after injection) [s]	Thermal withdrawal latency, Average ([2]; 30 minutes after injection)	thermal latency time (analgesic effect) [2]	duration of antinociceptive effect [1]
–	–	CCN(CC)CC(=O)Nc1c(C)cccc1C [Lidocaine]	significant antinociceptive effect	5	15	45	–	–	–	–	–
–	–	FCOC(C(F)(F)F)C(F)(F)F [Sevoflurane, fluoromethyl 2,2,2-trifluoro-1-(trifluoromethyl)ethyl ether]	–	–	–	–	14.65 s and 13.82 s and 13.14 s and 12.98 s	13.65	8.61 s and 8.35 s and 8.89 s and 9.54 s	significantly increased	–
≤ 3	approximately 8 hrs	FC(F)OC(Cl)C(F)(F)F (centres unmarked) [Isoflurane, 1-chloro-2,2,2-trifluoroethyl difluoromethyl ether]	significant antinociceptive effect	25	–	–	19.25 s and 18.21 s and 18.63 s and 17.95 s	18.51	9.48 s and 8.93 s and 10.52 s and 9.21 s	significantly increased	continued throughout the experiment
